The subject of experiment [1] is Klebsiella pneumoniae. Kind of experiment: Inhibition of Klebsiella pneumoniae KP1009 CTX-M-15 assessed as minimum concentration of compound required to reduce the MIC of aztreonam to 4 ug/ml.
Experiment [2] relates to Escherichia coli. The experiment is described as follows: Inhibition of Escherichia coli EC302 TEM-10 assessed as minimum concentration of compound needed to reduce the MIC of aztreonam to 4 ug/ml.
Experiment [3] deals with Beta-lactamase (Klebsiella pneumoniae) (UniProt Q93LQ9). The experiment is described as follows: Inhibition of Klebsiella pneumoniae KP1004 KPC-2 assessed as minimum concentration of compound needed to reduce the MIC of aztreonam to 4 ug/ml.
Chain of Beta-lactamase (Klebsiella pneumoniae) (Q93LQ9 as listed by the source): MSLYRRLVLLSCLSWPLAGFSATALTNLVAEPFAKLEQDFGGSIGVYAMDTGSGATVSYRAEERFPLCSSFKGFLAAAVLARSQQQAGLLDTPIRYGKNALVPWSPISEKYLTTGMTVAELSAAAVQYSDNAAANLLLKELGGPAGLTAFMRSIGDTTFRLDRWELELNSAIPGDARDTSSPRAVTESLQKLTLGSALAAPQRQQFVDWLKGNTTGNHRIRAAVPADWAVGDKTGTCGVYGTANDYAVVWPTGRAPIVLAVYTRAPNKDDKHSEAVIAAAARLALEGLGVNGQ
In experiment [4] the test system is Escherichia coli. The experiment is described as follows: Inhibition of Escherichia coli EC308 SHV-5 assessed as minimum concentration of compound needed to reduce the MIC of aztreonam to 4 ug/ml.
The test system of another experiment is Enterobacter cloacae. Kind of experiment: Inhibition of Enterobacter cloacae ECL1002 AmpC assessed as minimum concentration of compound needed to reduce the MIC of aztreonam to 4 ug/ml.
The subject of another experiment is Pseudomonas aeruginosa. Kind of experiment: Inhibition of Pseudomonas aeruginosa PAM 2035 AmpC assessed as minimum concentration of compound needed to reduce the MIC of aztreonam to 4 ug/ml.
In experiment [5] the test system is Escherichia coli. The experiment is described as follows: Inhibition of Escherichia coli ECM6625 SHV-5 assessed as minimum concentration of compound needed to reduce the MIC of aztreonam to 4 ug/ml.
In experiment [6] the test system is Klebsiella pneumoniae. Kind of experiment: Inhibition of Klebsiella pneumoniae KP1054 VIM-1 assessed as minimum concentration of compound required to reduce the MIC of biapenem to 1 ug/ml.
Experiment [7] concerns Klebsiella pneumoniae. Kind of experiment: Inhibition of Klebsiella pneumoniae KP1160 IMP-26 assessed as minimum concentration of compound needed to reduce the MIC of meropenem to 1 ug/ml.
In experiment [8] the test system is Escherichia coli. Kind of experiment: Inhibition of Escherichia coli ECM6619 TEM-10 assessed as minimum concentration of compound needed to reduce the MIC of aztreonam to 4 ug/ml.
For experiment [9], the target named is Beta-lactamase OXA-23 (Acinetobacter baumannii) (UniProt Q9L4P2). The experiment is described as follows: Inhibition of Acinetobacter baumannii AB1054 OXA-23 assessed as minimum concentration of compound needed to reduce the MIC of meropenem to 8 ug/ml.
Chain of Beta-lactamase OXA-23 (Acinetobacter baumannii) (Q9L4P2 whole entry): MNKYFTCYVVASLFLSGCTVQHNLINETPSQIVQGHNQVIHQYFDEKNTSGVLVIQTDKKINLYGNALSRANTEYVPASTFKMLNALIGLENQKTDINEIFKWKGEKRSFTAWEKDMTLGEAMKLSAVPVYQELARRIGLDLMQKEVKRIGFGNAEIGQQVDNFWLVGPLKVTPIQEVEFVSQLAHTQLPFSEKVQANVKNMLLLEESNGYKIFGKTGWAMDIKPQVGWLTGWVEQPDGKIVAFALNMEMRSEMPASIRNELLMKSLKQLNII
The test system of experiment [10] is Escherichia coli. The experiment is described as follows: Inhibition of Escherichia coli KP308 SHV-5 assessed as minimum concentration of compound required to reduce the MIC of aztreonam to 4 ug/ml.
Experiment [11] has as its system Klebsiella pneumoniae. The experiment is described as follows: Inhibition of Klebsiella pneumoniae KP1081 NDM-1 assessed as minimum concentration of compound required to reduce the MIC of biapenem to 1 ug/ml.
The test system of the next experiment is Acinetobacter baumannii. Kind of experiment: Inhibition of Acinetobacter baumannii AB1053 OXA-72 assessed as minimum concentration of compound needed to reduce the MIC of meropenem to 8 ug/ml.

As for `CSCC(=O)N[C@H]1Cc2ccc(Sc3nnc(N)s3)c(C(=O)O)c2OB1O`, the MEC in the experiment with Klebsiella pneumoniae [1] is 2.5 µg/mL; in the experiment on Escherichia coli [2] it was 2.5 µg/mL; in experiment [3], 5 µg/mL; in the experiment on Escherichia coli [4], < 0.3 µg/mL; in the experiment on Enterobacter cloacae, 2.5 µg/mL; in the experiment on Pseudomonas aeruginosa, > 20 µg/mL.

Regarding `CSCC(=O)N[C@H]1Cc2ccc(OCCO)c(C(=O)O)c2OB1O`, the MEC in the experiment with Klebsiella pneumoniae [1] is 1.25 µg/mL; in the experiment with Escherichia coli [2], 2.5 µg/mL; in [3] it was 1.25 µg/mL; with Escherichia coli [4], < 0.3 µg/mL; in the experiment with Enterobacter cloacae it was 5 µg/mL; with Pseudomonas aeruginosa, > 20 µg/mL.

Take `CSCC(=O)N[C@H]1Cc2ccc(SCC(N)=O)c(C(=O)O)c2OB1O`: the MEC with Klebsiella pneumoniae [1] was 0.6 µg/mL; in the experiment on Escherichia coli [2], 1.25 µg/mL; in experiment [3], 2.5 µg/mL; with Escherichia coli [4] it was 0.16 µg/mL; in the experiment with Enterobacter cloacae it was 2.5 µg/mL; in the experiment on Pseudomonas aeruginosa, > 20 µg/mL.

With `CSCC(=O)N[C@H]1Cc2ccc(OCC(=O)O)c(C(=O)O)c2OB1O`, the MEC with Klebsiella pneumoniae [1] was 2.5 µg/mL; in the experiment with Escherichia coli [2], 5 µg/mL; in [3], 5 µg/mL; in the experiment on Escherichia coli [4] it was 0.08 µg/mL; in the experiment with Enterobacter cloacae, 5 µg/mL; with Pseudomonas aeruginosa, > 20 µg/mL.

As to `COc1ccc2c(c1C(=O)O)OB(O)[C@H]1C[C@@H]21`, the MEC with Klebsiella pneumoniae [1] turned out to be 0.6 µg/mL; in the experiment with Escherichia coli [2] it was 0.6 µg/mL; in experiment [3] it was 0.16 µg/mL; with Escherichia coli [5] it was 0.3 µg/mL; in the experiment on Enterobacter cloacae it was 1.25 µg/mL; in the experiment with Klebsiella pneumoniae [6], 0.3 µg/mL. For the same compound, the MEC in the experiment with Pseudomonas aeruginosa was determined as 2.5 µg/mL; in the experiment with Klebsiella pneumoniae [7] it was 20 µg/mL; in the experiment with Escherichia coli [8], 0.6 µg/mL; in [9] it was 1.25 µg/mL; in the experiment with Escherichia coli [10] it was 0.3 µg/mL; in the experiment on Klebsiella pneumoniae [11] it was 0.6 µg/mL. Also, the MEC with Acinetobacter baumannii is 0.6 µg/mL.

In the case of `COc1ccc2c(c1C(=O)O)OB(O)C(F)=C2`, the MEC is 1.25 µg/mL with Klebsiella pneumoniae [1]; 1.25 µg/mL with Escherichia coli [2]; 0.16 µg/mL in [3]; 1.25 µg/mL with Escherichia coli [5]; 0.3 µg/mL in the experiment with Enterobacter cloacae; > 20 µg/mL in the experiment on Klebsiella pneumoniae [6]. The MEC in the experiment on Pseudomonas aeruginosa worked out at 5 µg/mL; with Klebsiella pneumoniae [7] it was 2.5 µg/mL; in the experiment with Escherichia coli [8], 1.25 µg/mL; in [9] it was 5 µg/mL; in the experiment with Escherichia coli [10] it was 1.25 µg/mL; in the experiment with Klebsiella pneumoniae [11], 5 µg/mL. Besides, in the experiment with Acinetobacter baumannii, the MEC worked out at 2.5 µg/mL.

In the case of `O=C(O)c1nccc2c1OB(O)[C@@H]1C[C@H]21`, the MEC worked out at 2.5 µg/mL with Klebsiella pneumoniae [1]; 0.3 µg/mL in the experiment with Escherichia coli [2]; 0.6 µg/mL in experiment [3]; 0.6 µg/mL in the experiment with Escherichia coli [5]; 5 µg/mL in the experiment with Enterobacter cloacae; 0.3 µg/mL in the experiment with Klebsiella pneumoniae [6]. Besides, the MEC with Pseudomonas aeruginosa was 2.5 µg/mL; in the experiment with Klebsiella pneumoniae [7] it was > 20 µg/mL; in the experiment on Escherichia coli [8], 0.3 µg/mL; in [9], 1.25 µg/mL; in the experiment on Escherichia coli [10] it was 0.6 µg/mL; with Klebsiella pneumoniae [11], 2.5 µg/mL. In the experiment with Acinetobacter baumannii, the MEC turned out to be 0.3 µg/mL.

On to `COc1ccc2c(c1C(=O)O)OB(O)C1(CC1)C2`, for which the MEC in the experiment on Klebsiella pneumoniae [1] was > 20 µg/mL; with Escherichia coli [2] it was > 20 µg/mL; in experiment [3], 5 µg/mL; in the experiment on Escherichia coli [5], > 20 µg/mL; in the experiment on Enterobacter cloacae it was 10 µg/mL; with Klebsiella pneumoniae [6] it was 5 µg/mL. The MEC is 10 µg/mL with Pseudomonas aeruginosa; > 20 µg/mL with Klebsiella pneumoniae [7]; > 20 µg/mL in the experiment with Escherichia coli [8]; > 20 µg/mL in experiment [9]; > 20 µg/mL in the experiment with Escherichia coli [10]; 10 µg/mL in the experiment on Klebsiella pneumoniae [11]. In addition, the MEC in the experiment on Acinetobacter baumannii was > 20 µg/mL.

Consider `O=C(O)c1c(F)ccc2c1OB(O)[C@H]1C[C@@H]21`, for which the MEC with Klebsiella pneumoniae [1] is 1.25 µg/mL; in the experiment with Escherichia coli [2], 1.25 µg/mL; in [3], 0.3 µg/mL; in the experiment with Escherichia coli [5], 1.25 µg/mL; in the experiment with Enterobacter cloacae it was 2.5 µg/mL; with Klebsiella pneumoniae [6], > 20 µg/mL. For the same compound, the MEC in the experiment with Pseudomonas aeruginosa was 5 µg/mL; in the experiment on Klebsiella pneumoniae [7] it was > 20 µg/mL; in the experiment with Escherichia coli [8], 1.25 µg/mL; in experiment [9], 10 µg/mL; in the experiment on Escherichia coli [10] it was 1.25 µg/mL; in the experiment with Klebsiella pneumoniae [11], 5 µg/mL. Also, the MEC with Acinetobacter baumannii came to 5 µg/mL.

Values taken from ChEMBL document CHEMBL4616632, “Discovery of Cyclic Boronic Acid QPX7728, an Ultrabroad-Spectrum Inhibitor of Serine and Metallo-β-lactamases” (J Med Chem, 2020).
